Data taken from ChEMBL document CHEMBL5608201, “Discovery and optimization of thiazole-based quorum sensing inhibitors as potent blockers of Pseudomonas aeruginosa pathogenicity” (Eur J Med Chem, 2024).
≈ marks a conversion by molar mass, not a printed value.

Tests used:
[1] = molecular target: T1, Transcriptional regulator MvfR (Pseudomonas aeruginosa PA14, UniProt A0A072ZLE6); assay: Inverse agonist activity at Pseudomonas aeruginosa PqsR extracted from Escherichia coli Dh5alpha co-expressing lacZ incubated with test compound in presence of pseudomonas quinolone signal (PQS) by ONPG/heterologous reporter gene assay
T1 sequence (A0A072ZLE6 whole entry): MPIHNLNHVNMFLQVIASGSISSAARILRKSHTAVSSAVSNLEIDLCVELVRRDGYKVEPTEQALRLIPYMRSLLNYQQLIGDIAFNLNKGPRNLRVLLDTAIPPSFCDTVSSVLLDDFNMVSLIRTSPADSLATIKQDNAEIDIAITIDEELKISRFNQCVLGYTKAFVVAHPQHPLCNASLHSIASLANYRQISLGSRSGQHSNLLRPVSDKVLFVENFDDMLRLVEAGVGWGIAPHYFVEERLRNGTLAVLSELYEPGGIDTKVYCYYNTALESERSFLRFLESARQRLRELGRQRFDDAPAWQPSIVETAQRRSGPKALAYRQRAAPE

[2] = tested on: Pseudomonas aeruginosa; assay: Antivirulence activity against Pseudomonas aeruginosa PA14 assessed as inhibition of pyocyanin biosynthesis incubated for 16 hrs under agitation by photometric analysis; type: functional, organism-based; details: PA14, 16 h
[3] = Metabolic stability in mouse liver microsomes assessed as half life at 1 uM measured after 30 mins by HPLC-MS/MS analysis; type: ADME, Microsome
[4] = Kinetic aqueous solubility of the compound in PBS buffer incubated for 5 mins by turbidimetric aqueous solubility assay; type: physicochemical; details: read-out: Kinetic_solubility
[5] = Lipophilicity, log D of the compound; type: physicochemical; details: octanol/water
[6] = Cytotoxicity against human HepG2 cells assessed as viable cells; type: toxicity, cell-based; details: read-out: LD50 (the source's name)
[7] = Metabolic stability in human liver S9 fraction assessed as half life; type: ADME, subcellular
[8] = Cytotoxicity against human HepG2 cells assessed as viable cells at 25 uM relative to control; type: toxicity, cell-based; details: read-out: Activity
[9] = Cytotoxicity against human HEK293 cells assessed as viable cells; type: toxicity, cell-based; details: read-out: LD50 (the source's name)
[10] = Cytotoxicity against human HEK293 cells assessed as viable cells at 25 uM relative to control; type: toxicity, cell-based; details: read-out: Activity
[11] = molecular target: Voltage-gated inwardly rectifying potassium channel KCNH2 (Homo sapiens, UniProt Q12809); assay: Inhibition of hERG; type: toxicity
[12] = Plasma protein binding in human; type: ADME, cell-free; details: read-out: PPB
[13] = Plasma protein binding in mouse; type: ADME, cell-free; details: read-out: PPB
[14] = molecular target: Cytochrome P450 3A4 (Homo sapiens, UniProt P08684); assay: Inhibition of CYP3A4 (unknown origin); type: ADME
[15] = molecular target: Cytochrome P450 2D6 (Homo sapiens, UniProt P10635); assay: Inhibition of CYP2D6 (unknown origin); type: ADME
[16] = molecular target: T2, CYP1A (Homo sapiens, UniProt P04798+P05177); assay: Inhibition of CYP1A (unknown origin); type: ADME, protein assay
T2 sequence (P04798 whole entry): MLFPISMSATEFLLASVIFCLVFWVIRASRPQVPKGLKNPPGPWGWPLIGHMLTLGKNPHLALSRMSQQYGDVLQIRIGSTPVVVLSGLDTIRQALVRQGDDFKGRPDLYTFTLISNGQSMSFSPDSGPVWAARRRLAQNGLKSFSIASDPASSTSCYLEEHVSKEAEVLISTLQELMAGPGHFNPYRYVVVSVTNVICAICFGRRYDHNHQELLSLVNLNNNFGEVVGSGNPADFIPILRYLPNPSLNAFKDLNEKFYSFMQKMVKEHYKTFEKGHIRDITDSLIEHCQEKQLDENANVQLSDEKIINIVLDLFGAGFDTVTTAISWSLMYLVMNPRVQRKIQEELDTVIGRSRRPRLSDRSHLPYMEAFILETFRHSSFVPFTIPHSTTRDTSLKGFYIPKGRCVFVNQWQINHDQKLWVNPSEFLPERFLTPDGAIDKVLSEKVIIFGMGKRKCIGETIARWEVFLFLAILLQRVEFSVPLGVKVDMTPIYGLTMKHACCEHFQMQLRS
T2 sequence (P05177 whole entry): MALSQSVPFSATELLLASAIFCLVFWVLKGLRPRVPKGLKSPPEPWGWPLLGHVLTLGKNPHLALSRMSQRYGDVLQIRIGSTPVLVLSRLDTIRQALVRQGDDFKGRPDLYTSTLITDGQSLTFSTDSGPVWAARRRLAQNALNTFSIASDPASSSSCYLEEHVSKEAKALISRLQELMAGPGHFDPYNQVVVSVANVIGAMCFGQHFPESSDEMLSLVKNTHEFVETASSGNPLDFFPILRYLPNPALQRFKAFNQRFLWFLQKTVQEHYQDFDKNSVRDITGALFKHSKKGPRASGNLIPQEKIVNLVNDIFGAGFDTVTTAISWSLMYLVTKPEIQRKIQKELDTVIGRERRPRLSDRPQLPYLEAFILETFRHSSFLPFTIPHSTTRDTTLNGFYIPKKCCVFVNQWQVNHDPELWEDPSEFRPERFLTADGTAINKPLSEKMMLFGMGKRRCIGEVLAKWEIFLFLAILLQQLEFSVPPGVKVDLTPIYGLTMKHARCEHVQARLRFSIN

[17] = molecular target: Cytochrome P450 2C9 (Homo sapiens, UniProt P11712); assay: Inhibition of CYP2C9 (unknown origin); type: ADME
[18] = molecular target: Cytochrome P450 2C19 (Homo sapiens, UniProt P33261); assay: Inhibition of CYP2C19 (unknown origin); type: ADME
[19] = Cytotoxicity against human HEK293 cells assessed as viable cells at 50 uM relative to control; type: toxicity, cell-based; details: read-out: Activity
[20] = Selectivity ratio of LD50 for Cytotoxicity against human HEK293 cells to IC50 for Inverse agonist activity at Pseudomonas aeruginosa PqsR; type: toxicity, cell-based

Cytochrome P450 2C19, sequence (P33261 whole entry): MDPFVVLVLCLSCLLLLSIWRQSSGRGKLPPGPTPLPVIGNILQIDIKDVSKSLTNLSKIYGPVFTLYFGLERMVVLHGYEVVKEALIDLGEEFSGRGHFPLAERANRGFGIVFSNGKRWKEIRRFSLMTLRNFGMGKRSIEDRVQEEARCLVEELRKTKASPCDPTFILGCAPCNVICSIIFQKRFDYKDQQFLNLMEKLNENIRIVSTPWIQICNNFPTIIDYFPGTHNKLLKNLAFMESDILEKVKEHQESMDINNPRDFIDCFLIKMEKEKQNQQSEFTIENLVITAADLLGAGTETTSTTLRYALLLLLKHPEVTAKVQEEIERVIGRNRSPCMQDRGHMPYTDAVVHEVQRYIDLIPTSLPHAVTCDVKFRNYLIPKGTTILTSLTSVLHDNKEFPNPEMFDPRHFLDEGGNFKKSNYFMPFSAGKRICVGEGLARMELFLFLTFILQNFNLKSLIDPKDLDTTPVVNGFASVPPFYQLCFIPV
Voltage-gated inwardly rectifying potassium channel KCNH2, sequence (Q12809 whole entry): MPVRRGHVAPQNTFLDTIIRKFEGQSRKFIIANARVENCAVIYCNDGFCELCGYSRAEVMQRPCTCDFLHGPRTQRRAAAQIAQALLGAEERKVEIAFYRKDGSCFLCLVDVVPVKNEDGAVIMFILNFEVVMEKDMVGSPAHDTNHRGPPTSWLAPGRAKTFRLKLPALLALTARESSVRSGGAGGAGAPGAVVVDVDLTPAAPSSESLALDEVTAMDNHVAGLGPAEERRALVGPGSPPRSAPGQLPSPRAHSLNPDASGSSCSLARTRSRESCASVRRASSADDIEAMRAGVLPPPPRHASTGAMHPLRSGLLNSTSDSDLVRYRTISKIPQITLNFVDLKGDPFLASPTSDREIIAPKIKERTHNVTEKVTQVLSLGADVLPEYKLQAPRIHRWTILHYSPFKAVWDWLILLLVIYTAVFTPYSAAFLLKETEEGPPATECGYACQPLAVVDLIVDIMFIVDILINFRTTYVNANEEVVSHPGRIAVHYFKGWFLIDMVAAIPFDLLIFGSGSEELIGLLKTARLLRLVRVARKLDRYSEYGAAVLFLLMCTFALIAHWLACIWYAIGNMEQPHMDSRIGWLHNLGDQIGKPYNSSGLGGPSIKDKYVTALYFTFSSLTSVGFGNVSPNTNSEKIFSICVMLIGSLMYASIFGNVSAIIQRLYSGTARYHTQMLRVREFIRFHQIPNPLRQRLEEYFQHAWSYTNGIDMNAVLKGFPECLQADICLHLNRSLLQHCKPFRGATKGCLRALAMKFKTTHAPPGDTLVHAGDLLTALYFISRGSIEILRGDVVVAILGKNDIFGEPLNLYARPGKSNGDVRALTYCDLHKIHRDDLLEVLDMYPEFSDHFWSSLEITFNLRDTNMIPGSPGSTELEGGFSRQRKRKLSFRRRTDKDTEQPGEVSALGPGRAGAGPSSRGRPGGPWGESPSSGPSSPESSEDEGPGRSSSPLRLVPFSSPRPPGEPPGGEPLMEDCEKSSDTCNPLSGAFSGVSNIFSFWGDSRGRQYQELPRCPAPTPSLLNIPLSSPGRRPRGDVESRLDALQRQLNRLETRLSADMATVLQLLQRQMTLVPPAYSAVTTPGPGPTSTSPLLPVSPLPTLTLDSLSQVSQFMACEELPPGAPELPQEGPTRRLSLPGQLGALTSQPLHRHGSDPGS
Cytochrome P450 2C9, sequence (P11712 whole entry): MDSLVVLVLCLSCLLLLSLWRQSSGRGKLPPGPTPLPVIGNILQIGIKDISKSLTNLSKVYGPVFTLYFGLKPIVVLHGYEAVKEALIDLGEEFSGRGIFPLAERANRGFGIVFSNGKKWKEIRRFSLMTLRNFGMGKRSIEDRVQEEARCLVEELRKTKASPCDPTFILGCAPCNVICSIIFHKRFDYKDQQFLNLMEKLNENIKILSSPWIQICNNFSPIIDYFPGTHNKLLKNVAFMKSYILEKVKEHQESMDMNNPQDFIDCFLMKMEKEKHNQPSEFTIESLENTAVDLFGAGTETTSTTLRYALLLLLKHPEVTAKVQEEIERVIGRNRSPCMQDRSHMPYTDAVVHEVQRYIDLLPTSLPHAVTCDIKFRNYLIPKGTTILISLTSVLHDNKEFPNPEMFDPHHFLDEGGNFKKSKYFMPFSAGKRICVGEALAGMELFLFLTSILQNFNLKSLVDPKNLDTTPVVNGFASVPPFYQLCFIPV
Cytochrome P450 3A4, sequence (P08684 whole entry): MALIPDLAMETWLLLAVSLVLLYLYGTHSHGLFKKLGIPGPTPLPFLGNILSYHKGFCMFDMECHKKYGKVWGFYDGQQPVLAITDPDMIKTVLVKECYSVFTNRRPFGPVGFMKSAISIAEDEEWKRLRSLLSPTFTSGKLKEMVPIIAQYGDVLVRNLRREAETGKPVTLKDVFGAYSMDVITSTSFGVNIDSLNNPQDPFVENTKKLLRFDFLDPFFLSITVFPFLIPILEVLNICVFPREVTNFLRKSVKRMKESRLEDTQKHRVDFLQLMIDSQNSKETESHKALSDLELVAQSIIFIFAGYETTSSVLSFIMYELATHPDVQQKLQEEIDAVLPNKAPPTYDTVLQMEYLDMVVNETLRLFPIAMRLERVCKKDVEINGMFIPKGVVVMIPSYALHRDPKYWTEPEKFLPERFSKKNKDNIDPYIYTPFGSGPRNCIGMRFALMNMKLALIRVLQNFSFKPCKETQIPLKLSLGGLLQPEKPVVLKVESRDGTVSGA
Cytochrome P450 2D6, sequence (P10635 whole entry): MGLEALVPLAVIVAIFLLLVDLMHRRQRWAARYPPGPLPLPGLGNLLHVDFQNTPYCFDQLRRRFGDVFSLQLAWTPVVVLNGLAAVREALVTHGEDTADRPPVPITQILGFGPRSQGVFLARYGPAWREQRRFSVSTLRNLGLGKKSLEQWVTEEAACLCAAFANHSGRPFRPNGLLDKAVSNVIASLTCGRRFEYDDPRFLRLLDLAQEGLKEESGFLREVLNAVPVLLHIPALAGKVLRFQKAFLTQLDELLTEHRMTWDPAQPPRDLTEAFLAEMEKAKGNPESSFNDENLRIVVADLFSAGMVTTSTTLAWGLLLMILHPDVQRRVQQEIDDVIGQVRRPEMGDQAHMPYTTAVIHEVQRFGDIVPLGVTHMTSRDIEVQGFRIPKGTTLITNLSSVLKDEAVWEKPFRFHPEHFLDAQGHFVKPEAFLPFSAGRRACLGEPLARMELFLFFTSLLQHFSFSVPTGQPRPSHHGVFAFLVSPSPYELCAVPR

SMILES | IC50 [1] [µM] | IC50 [2] [µM] | half-life at 1 µM [3] [min] | solubility kinetic at 5 min [4] [µM] | logD [5] | CC50 [6] [µM] | half-life [7] [min] | viability at 25 µM [8] [%] | CC50 [9] [µM] | viability at 25 µM [10] [%] | IC50 [11] [µM] | fraction unbound [12] | fraction unbound [13] | IC50 [14] [µM] | IC50 [15] [µM] | IC50 [16] [µM] | IC50 [17] [µM] | IC50 [18] [µM] | viability at 50 µM [19] [%] | selectivity ratio [20]
CC(C)Oc1ccc(-c2ncc(CNc3ccnc(C(F)(F)F)c3)s2)cc1Cl | 0.008 | 0.106 | 20 | 7 (≈ 3 µg/mL) | 4.51 | ~25 | > 60 | 49 | ~25 | 51 | > 25 | < 0.01 | < 0.01 | > 25 | > 25 | > 25 | 16.4 | 17.1 | – | –
CC(C)Oc1ccc(-c2ncc(CNc3ccnc(C#N)c3)s2)cc1Cl | 0.005 | 0.098 | 11 | 7 (≈ 2.69 µg/mL) | 4.83 | > 25 | > 60 | 59 | ~50 | – | 13.2 | < 0.01 | < 0.01 | > 25 | > 25 | > 25 | > 25 | 21.4 | 51 | 10000
